Data reported in patent US10221179B2, “Substituted pyrazoloquinazolinones and pyrroloquinazolinones as allosteric modulators of group II metabotropic glutamate receptors” (DOMAIN THERAPEUTICS, priority 2014, dated 2019).
Where two headings read alike, the source gives them in different places.

Experiments:
[1] = molecular target: T1, human mGluR2 (hmGluR2) (Homo sapiens, UniProt Q14416); test: Ca++ functional assay, human mGluR2 transiently over-expressed in HEK-293 cells (agonist and negative allosteric modulator modes); assay type: cell-based; conditions: glutamate at EC80, intracellular calcium (Fluo4AM)
T1 construct: expressed in transfected cells; host or cells: HEK-293 cells, transient co-transfection by electroporation
Method: (§1) Example 127: Human mGluR2 and mGluR3 Evaluation Using Ca^++ Functional Assay
Examples of the present invention were tested successively for their agonist and negative allosteric modulator activities on human mGluR2 (hmGluR2) and mGluR3 (hmGluR3) transiently over-expressed in HEK-293 cells.
Cell Culture and Transfection
HEK-293 cells are maintained in Modified Eagle's Medium supplemented with 10% Foetal Calf Serum, 1% Penicillin/Streptomycin and 1% non-essential amino acids at 37° C./5% CO2.
Cells are co-transfected by electroporation with four DNA plasmids encoding hmGluR2 or hmGluR3, a chimeric G protein allowing redirection of the activation signal to intracellular calcium pathway (Brabet I et al., Neuropharmacology 37(8), 1043-51, 1998), and two glutamate transporters minimizing receptor desensitization by endogenous glutamate. After transfection, cells are cultured for 24 h at 37° C./5% CO2.
Calcium Assay IC50 Determination
(§2) Receptor activity is detected by changes in intracellular calcium measured using the fluorescent Ca^2+ sensitive dye, Fluo4AM (Molecular Probes).
On the day of the assay, culture medium is aspirated and replaced during 3 hours by medium without serum supplemented with 1% Glutamax, 1% Penicillin/Streptomycin and 1% non-essential amino acids. Then, cells are washed with freshly prepared buffer B (HBSS 1×(PAA), Hepes 20 mM, MgSO4-7H2O 1 mM, Na2CO3 3.3 mM, CaCl2-2H2O 1.3 mM, 0.1% BSA, Probenecid 2.5 mM) and loaded at 37° C. in 5% CO2 for 1.5 hours with buffer B containing 1 μM Fluo4AM, 0.1 mg/mL Pluronic Acid, 7 μg/mL Glutamate Pyruvate Transaminase and 2 mM sodium pyruvate. Afterwards cells are washed twice with buffer B. Then cells are detached using StemPro Accutase (Fischer Scientific), resuspended in buffer B and seeded in 384 well plate at a density of 30,000 cells per well. Addition of compounds and intracellular Ca^2+ measurements (excitation 485 nm, emission 525 nm) are performed by the fluorescence microplate reader FLIPRTetra (Molecular Devices).
Agonist and negative allosteric modulator activities of compounds are consecutively evaluated on the same cell plate. […] Then, cells are stimulated by an EC80 glutamate concentration and fluorescence is recorded for additional 3 minutes. EC80 glutamate concentration is the concentration giving 80% of the maximal glutamate response. Agonist or negative allosteric modulator activity(ies) are evaluated in comparison to basal signals evoked by buffer B or EC80 glutamate alone, respectively.
For IC50 determination, a dose-response test is performed using 20 concentrations (ranging over 6 logs) of each compound. Dose-response curves are fitted using the sigmoidal dose-response (variable slope) analysis in GraphPad Prism program (Graph Pad Inc) and IC50 of negative allosteric modulator activity is calculated. Dose-response experiments are performed in duplicate, two times independently.

[2] = molecular target: T2, human mGluR3 (hmGluR3) (Homo sapiens, UniProt Q14832); test: Ca++ functional assay, human mGluR3 transiently over-expressed in HEK-293 cells (agonist and negative allosteric modulator modes); assay type: cell-based; conditions: glutamate at EC80, intracellular calcium (Fluo4AM)
T2 construct: expressed in transfected cells; host or cells: HEK-293 cells, transient co-transfection by electroporation
Method: as §1
Examples of the present invention were tested successively for their agonist and negative allosteric modulator activities on human mGluR2 (hmGluR2) and mGluR3 (hmGluR3) transiently over-expressed in HEK-293 cells. Compounds exert agonist activity if, by themselves in absence of glutamate, they are able to activate hmGluR2 or hmGluR3; and they exert negative allosteric modulator activity if they decrease the action of glutamate (which is employed at its EC80 concentration).
Cell Culture and Transfection […]
as §2
On the day of the assay, culture medium is aspirated and replaced during 3 hours by medium without serum supplemented with 1% Glutamax, 1% Penicillin/Streptomycin and 1% non-essential amino acids. […] Addition of compounds and intracellular Ca^2+ measurements (excitation 485 nm, emission 525 nm) are performed by the fluorescence microplate reader FLIPRTetra (Molecular Devices).
Agonist and negative allosteric modulator activities of compounds are consecutively evaluated on the same cell plate. […] Then, cells are stimulated by an EC80 glutamate concentration and fluorescence is recorded for additional 3 minutes. […]

[3] = read-out: IC50 for human mGluR2 (negative allosteric modulator activity)
[4] = read-out: hmGluR2 negative allosteric modulator activity IC50

T1 sequence (Q14416 19-872): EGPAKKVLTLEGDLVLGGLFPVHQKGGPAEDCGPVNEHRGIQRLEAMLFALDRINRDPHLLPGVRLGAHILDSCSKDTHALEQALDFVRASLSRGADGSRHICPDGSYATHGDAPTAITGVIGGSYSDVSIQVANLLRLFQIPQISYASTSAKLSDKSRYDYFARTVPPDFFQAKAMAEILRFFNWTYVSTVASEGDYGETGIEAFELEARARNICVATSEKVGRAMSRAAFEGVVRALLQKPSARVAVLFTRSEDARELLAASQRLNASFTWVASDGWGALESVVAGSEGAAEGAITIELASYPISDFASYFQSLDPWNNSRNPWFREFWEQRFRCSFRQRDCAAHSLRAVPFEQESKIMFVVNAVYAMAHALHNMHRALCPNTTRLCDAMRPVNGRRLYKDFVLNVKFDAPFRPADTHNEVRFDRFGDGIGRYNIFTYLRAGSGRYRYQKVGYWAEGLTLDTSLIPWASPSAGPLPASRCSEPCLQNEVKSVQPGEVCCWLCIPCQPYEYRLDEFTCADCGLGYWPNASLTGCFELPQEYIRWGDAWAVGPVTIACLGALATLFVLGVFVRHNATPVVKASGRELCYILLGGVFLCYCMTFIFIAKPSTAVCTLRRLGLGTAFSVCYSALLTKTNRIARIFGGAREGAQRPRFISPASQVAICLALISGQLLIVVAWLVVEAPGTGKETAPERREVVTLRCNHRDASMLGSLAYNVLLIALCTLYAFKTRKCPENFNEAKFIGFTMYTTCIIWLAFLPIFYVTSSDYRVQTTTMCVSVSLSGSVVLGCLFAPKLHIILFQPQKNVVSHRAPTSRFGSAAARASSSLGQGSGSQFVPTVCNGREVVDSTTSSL
T2 sequence (Q14832 23-879): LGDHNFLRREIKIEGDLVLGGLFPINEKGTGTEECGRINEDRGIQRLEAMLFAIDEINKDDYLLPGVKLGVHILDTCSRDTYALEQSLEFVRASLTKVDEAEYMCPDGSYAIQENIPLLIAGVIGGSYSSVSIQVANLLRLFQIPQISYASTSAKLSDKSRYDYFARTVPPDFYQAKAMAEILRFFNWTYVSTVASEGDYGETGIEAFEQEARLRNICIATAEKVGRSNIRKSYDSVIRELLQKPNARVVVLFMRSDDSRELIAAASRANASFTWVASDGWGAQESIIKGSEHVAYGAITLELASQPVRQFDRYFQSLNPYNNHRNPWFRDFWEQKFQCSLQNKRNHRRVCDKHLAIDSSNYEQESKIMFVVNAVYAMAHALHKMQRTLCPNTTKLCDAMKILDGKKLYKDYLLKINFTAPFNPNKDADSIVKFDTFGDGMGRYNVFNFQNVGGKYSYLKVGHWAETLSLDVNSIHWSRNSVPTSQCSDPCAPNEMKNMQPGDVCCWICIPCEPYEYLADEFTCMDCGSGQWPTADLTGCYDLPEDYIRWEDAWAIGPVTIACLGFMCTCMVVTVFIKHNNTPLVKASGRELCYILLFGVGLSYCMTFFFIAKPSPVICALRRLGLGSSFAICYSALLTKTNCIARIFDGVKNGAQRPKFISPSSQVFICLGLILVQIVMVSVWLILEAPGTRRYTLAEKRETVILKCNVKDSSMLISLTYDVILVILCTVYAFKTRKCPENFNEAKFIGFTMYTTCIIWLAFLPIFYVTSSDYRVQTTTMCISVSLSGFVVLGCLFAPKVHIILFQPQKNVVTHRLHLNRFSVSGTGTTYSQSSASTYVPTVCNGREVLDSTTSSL

## Cn1c(=O)c2ccccc2n2nc(-c3ccnc(Cl)c3)cc12 [Example 1, 2-(2-Chloro-pyridin-4-yl)-4-methyl-4H-pyrazolo[1,5-a]quinazolin-5-one]
[1]; [3]
  IC50: < 100 nM
[1]; [4]
  IC50: < 1000 nM
[2]
  IC50: > 1000 nM

## CCOc1cc(-c2cc3n(C)c(=O)c4ccccc4n3n2)ccn1 [Example 15, 2-(2-ethoxy-pyridin-4-yl)-4-methyl-4H-pyrazolo[1,5-a]quinazolin-5-one]
[1]; [4]
  IC50: < 1000 nM
other
  melting point: 180 to 182 °C

## Cn1c(=O)c2ccc(N3CCC(O)C3)cc2n2nc(-c3ccnc(C(F)(F)F)c3)cc12 (centres unmarked) [Example 70, 8-(3-Hydroxy-pyrrolidin-1-yl)-4-methyl-2-(2-trifluoromethyl-pyridin-4-yl)-4H-pyrazolo[1,5-a]quinazolin-5-one]
[1]; [4]
  IC50: < 1000 nM
other
  melting point: > 250 °C

## Cn1c(=O)c2ccccc2n2nc(-c3ccnc(OC(C(F)(F)F)C(F)(F)F)c3)cc12 [Example 25, 4-Methyl-2-[2-(2,2,2-trifluoro-1-trifluoromethyl-ethoxy)-pyridin-4-yl]-4H-pyrazolo[1,5-a]quinazolin-5-one]
[1]; [4]
  IC50: < 1000 nM
other
  melting point: 188 to 194 °C

## Cn1c(=O)c2ccccc2n2nc(-c3ccnc(OCC(C)(F)F)c3)cc12 [Example 23, 2-[2-(2,2-Difluoro-propoxy)-pyridin-4-yl]-4-methyl-4H-pyrazolo[1,5-a]quinazolin-5-one]
[1]; [4]
  IC50: < 1000 nM
other
  melting point: 189 to 191 °C

## CCc1cc(-c2cc3n(C)c(=O)c4ccccc4n3n2)ccn1.Cl [Example 3, 2-(2-Ethyl-pyridin-4-yl)-4-methyl-4H-pyrazolo[1,5-a]quinazolin-5-one]
[1]; [4]
  IC50: < 1000 nM
other
  melting point: > 250 °C

## CN(C)c1cc2c(cc1F)c(=O)n(C)c1cc(-c3ccnc(C(F)(F)F)c3)nn21 [Example 91, 8-Dimethylamino-7-fluoro-4-methyl-2-(2-trifluoromethyl-pyridin-4-yl)-4H-pyrazolo[1,5-a]quinazolin-5-one]
[1]; [4]
  IC50: < 1000 nM
other
  melting point: > 250 °C

## COc1cc2c(=O)n(C)c3cc(-c4ccnc(C(F)(F)F)c4)nn3c2cc1F [Example 89, 8-Fluoro-7-methoxy-4-methyl-2-(2-trifluoromethyl-pyridin-4-yl)-4H-pyrazolo[1,5-a]quinazolin-5-one]
[1]; [4]
  IC50: < 1000 nM
other
  melting point: 220 to 230 °C

## [2H]C([2H])([2H])n1c(=O)c2ccccc2n2nc(-c3ccnc(C(C)(F)F)c3)cc12 [Example 33, 2-[2-(1,1-Difluoro-ethyl)-pyridin-4-yl]-4-methyl(D3)-4H-pyrazolo[1,5-a]quinazolin-5-one]
[1]; [4]
  IC50: < 1000 nM
other
  melting point: 198 to 205 °C

## CCn1c(=O)c2ccccc2n2nc(-c3ccnc(C(F)(F)F)c3)cc12 [Example 28, 4-Ethyl-2-(2-trifluoromethyl-pyridin-4-yl)-4H-pyrazolo[1,5-a]quinazolin-5-one]
[1]; [4]
  IC50: < 1000 nM
other
  melting point: 214 to 220 °C

## [2H]C([2H])([2H])n1c(=O)c2ccccc2n2nc(-c3ccnc(C(F)(F)F)c3)cc12 [Example 27, 4-Methyl(D3)-2-(2-trifluoromethyl-pyridin-4-yl)-4H-pyrazolo[1,5-a]quinazolin-5-one]
[1]; [4]
  IC50: < 1000 nM
other
  melting point: 232 to 237 °C

## CNc1ccc2c(c1)c(=O)n(C)c1cc(-c3ccnc(C(F)(F)F)c3)nn21 [Example 40, 4-Methyl-7-methylamino-2-(2-trifluoromethyl-pyridin-4-yl)-4H-pyrazolo[1,5-a]quinazolin-5-one]
[1]; [4]
  IC50: < 1000 nM
other
  melting point: > 250 °C

## C=Cc1cc(-c2cc3n(C)c(=O)c4ccccc4n3n2)ccn1 [Example 9, 4-Methyl-2-(2-vinyl-pyridin-4-yl)-4H-pyrazolo[1,5-a]quinazolin-5-one]
[1]; [3]
  IC50: < 100 nM
[1]; [4]
  IC50: < 1000 nM
[2]
  IC50: > 1000 nM

## CNc1ccc2c(=O)n(C)c3cc(-c4ccnc(C(F)(F)F)c4)nn3c2c1 [Example 61, 4-Methyl-8-methylamino-2-(2-trifluoromethyl-pyridin-4-yl)-4H-pyrazolo[1,5-a]quinazolin-5-one]
[1]; [4]
  IC50: < 1000 nM
other
  melting point: > 250 °C

## Cn1c(=O)c2cc(F)c(F)cc2n2nc(-c3ccnc(C(F)(F)F)c3)cc12 [Example 88, 7,8-Difluoro-4-methyl-2-(2-trifluoromethyl-pyridin-4-yl)-4H-pyrazolo[1,5-a]quinazolin-5-one]
[1]; [4]
  IC50: < 1000 nM
other
  melting point: > 206 °C

## CNC(=O)c1ccc2c(=O)n(C)c3cc(-c4ccnc(C(F)(F)F)c4)nn3c2c1 [Example 78, 4-Methyl-5-oxo-2-(2-trifluoromethyl-pyridin-4-yl)-4,5-dihydro-pyrazolo[1,5-a]quinazoline-8-carboxylic Acid Methylamide]
[1]; [4]
  IC50: < 1000 nM
other
  melting point: > 250 °C

## Cn1c(=O)c2ccc(C(N)=O)cc2n2nc(-c3ccnc(C(F)(F)F)c3)cc12 [Example 77, 4-Methyl-5-oxo-2-(2-trifluoromethyl-pyridin-4-yl)-4,5-dihydro-pyrazolo[1,5-a]quinazoline-8-carboxylic Acid Amide]
[1]; [4]
  IC50: < 1000 nM
other
  melting point: > 250 °C

## Cn1c(=O)c2ccc(C(=O)N3CCOCC3)cc2n2nc(-c3ccnc(C(F)(F)F)c3)cc12 [Example 81, 4-Methyl-8-(morpholine-4-carbonyl)-2-(2-trifluoromethyl-pyridin-4-yl)-4H-pyrazolo[1,5-a]quinazolin-5-one]
[1]; [4]
  IC50: < 1000 nM
other
  melting point: > 250 °C

## Cn1c(=O)c2ccc(N3CCC(O)CC3)cc2n2nc(-c3ccnc(C(F)(F)F)c3)cc12 [Example 63, 8-(4-Hydroxy-piperidin-1-yl)-4-methyl-2-(2-trifluoromethyl-pyridin-4-yl)-4H-pyrazolo[1,5-a]quinazolin-5-one]
[1]; [4]
  IC50: < 1000 nM
other
  melting point: 112 to 117 °C

## Cn1c(=O)c2cc(F)c(N3CCCC3CO)cc2n2nc(-c3ccnc(C(F)(F)F)c3)cc12 (centres unmarked) [Example 122, 7-Fluoro-8-(2-hydroxymethyl-pyrrolidin-1-yl)-4-methyl-2-(2-trifluoromethyl-pyridin-4-yl)-4H-pyrazolo[1,5-a]quinazolin-5-one]
[1]; [4]
  IC50: < 1000 nM
other
  melting point: > 250 °C

## Cl.Cn1c(=O)c2ccccc2n2nc(-c3ccnc(C4CCC4)c3)cc12 [Example 6, 2-(2-cyclobutyl-pyridin-4-yl)-4-methyl-4H-pyrazolo[1,5-a]quinazolin-5-one]
[1]; [4]
  IC50: < 1000 nM
other
  melting point: 236 to 244 °C
